Experimental data taken from patent publication US10653691B2, “Method of promoting remyelination” (Case Western Reserve University, priority 2013, dated 2020).

What was measured:
LPC lesion mouse model = assay: LPC-induced focal demyelination of the spinal cord and drug treatment; assay type: in vivo; conditions: for MBP staining in the lesions: 8 and 12 d.p.l.; for number of newly generated CC1+ oligodendrocytes in the lesion core: 8 d.p.l., miconazole 10 or 40 mg per kg, clobetasol 2 mg per kg, vs vehicle; for extent of remyelination (electron micrographs, toluidine blue): lesions of treated mice
Experimental: Focal demyelination in the spinal cord was induced by the injection of 1% LPC solution. Ten- to 12-week-old C57BL/6 female mice were anaesthetized using isoflurane and a T10 laminectomy was performed. One microlitre of 1% LPC was infused into the dorsal column at a rate of […]. The animals were euthanized either at day 8 or day 12 after the laminectomy (n=6-9 per group). Animals that were euthanized at day 8 received vehicle or drug daily by intraperitoneal injection between days 3 and 7. Animals used in the day 12 experiments received vehicle or drug daily by intraperitoneal injection between days 4 and 11. Drugs were dissolved in DMSO and then diluted with sterile saline for injection. Mice were deeply anaesthetized using ketamine/xylazine rodent cocktail and then euthanized by transcardial perfusion with 4% PFA for histological analysis or 4% PFA, 2% gluteraldehyde, and 0.1M sodium cacodylate for electron microscopy. PFA fixed tissue was equilibrated in 30% sucrose, embedded in OCT, and cryosectioned at 20 μm thickness and processed for CC1 and MBP immunohistochemistry. ImageJ was used to measure area of the lesion and CC1^+ cells within the lesion were scored manually. For CC1 scoring, sections were taken from the centre of each lesion to control for lesion variability.
Samples were processed as previously described.

[1] = tested on: PLP139-151- or MOG35-55-sensitized lymph node cells; assay: Ex vivo lymphocyte recall assays; assay type: cell-based, mouse
MOG35-55 EAE mouse model = assay: MOG35-55 chronic progressive EAE model; conditions: for areas of myelin disruption in the white matter (luxol fast blue, MBP immunohistochemistry): cervical spinal cords; for functional improvement (disease score): daily i.p. for 10 days from peak of disease; for MBP expression and extent of demyelination in the spinal cord: histology after treatment, vs vehicle; for average clinical scores and cumulative clinical scores: larger treatment cohort, n=12 to 18 mice per group; for immune cell infiltration into the lesion areas (IBA1 staining): spinal cords after treatment
Experimental: Immunohistochemistry was performed as previously described. In short, tissue sections or whole slices were washed three times in PBS, blocked in PBS containing Triton X-100 (0.1%) and normal donkey serum (NDS, 2% for sections and 10% for cerebellar slices) and incubated with primary antibody overnight. For MBP immunohistochemistry, the primary antibody solution consisted of 2% NDS, 2% bovine serum albumin, and 0.1% saponin. For all other antibodies, the primary antibody solution consisted of 2% NDS and 0.1% Triton X-100. Primary antibodies used included rat anti-MBP (Abcam, ab7349; 1:100), mouse anti-APC CC1 clone (Millipore, MABC200; 1:500), and rabbit anti-IBA1 (Wako Chemicals, 019-19741; 1:1,000). The tissue was then washed in PBS and incubated in secondary antibodies for […]. Secondary detection was performed with Alexa Fluor-conjugated secondary antibodies (1:500) for 1 h. Luxol fast blue staining was performed as previously described.
Samples were processed as previously described. In short, samples were osmicated, stained en bloc with uranyl acetate, and embedded in EMbed 812, an Epon-812 substitute (EMS). Sections (1 μm) were cut and stained with toluidine blue and visualized on a light microscope (Leica DM5500B). Additional thin sections were cut, carbon coated and imaged either on a JEOL JEM-1200-EX electron microscope or a T12 electron microscope (FEI).
EAE was induced by immunizing 10-week-old C57BL/6 female mice with […] injection of […] complete Freund's adjuvant emulsion (Hooke Laboratories). One hour after immunization, mice were given 100 ng of pertussis toxin by 100 μl intraperitoneal injection. A second dose of pertussis toxin was administered the next day. EAE onset was monitored daily and scored using a clinical scale where 0 represented no abnormality; 1, limp tail; 2, limp tail and hind limb weakness; 3, hind limb paralysis; 4, hind limb paralysis and forelimb weakness; and 5, moribund. […] Once mice reached peak of disease ˜day 15; clinical score=3) they were randomized into treatment groups, and drug or vehicle (DMSO in saline) was administered intraperitoneally daily for 10 days (n=12-16 mice per group). […] Experimenters were blinded to the identity of the treatments and animals were scored daily. Cumulative disease scores for each animal were calculated during the treatment period, and a two-tailed t-test compared drug—with vehicle-treated groups. The extent of recovery for each animal was calculated as the difference between the peak disease score and the score at the end of each experiment, and a two-tailed t-test was used to compare each treatment with vehicle. External validation of MOG35-55 EAE experiments (n=12 mice per group) was performed at Hooke Laboratories with experimenters blinded to the identity of the substances.

OPCs = assay: HCA of astrocyte induction (GFAP); assay type: cell-based, mouse; conditions: 72 h, in vitro
Experimental: For the astrocyte experiments in FIG. 3C, the experimental setup was identical to the PLP1-based primary validation screen except plates were stained for GFAP (DAKO, Z0334; 1:5,000). BMP4 (R&D Systems; 50 ng ml^−1) and LIF (Millipore; 10^3 U ml^−1) were used as the positive control for astrocyte induction. Assay plates were imaged on the Operetta High Content Imaging and Analysis system and a set of 14×20 fields captured. Columbus Data Management and Analysis System software (PerkinElmer) was used to quantify the percentage of GFAP1 astrocytes in each well using a method similar to that developed for oligodendrocytes.

mouse OPCs = assay: OPC differentiation into MBP+ oligodendrocytes; assay type: cell-based; conditions: for number of MBP+ oligodendrocytes by duration of treatment: 24, 48, 56 and 72 h; for number of MBP+ oligodendrocytes at 72 h by time of treatment start: treatment started at 0, 16, 24 or 48 h
Experimental: EpiSC-derived OPCs were seeded onto poly-D-lysine 96-well Viewplate or CellCarrier plates (PerkinElmer) coated with laminin (Sigma, L2020; 10 μgml^−1) using electronic multichannel pipetors. For the primary screen, 30,000 cells were seeded per well in screening medium (DMEM/F12 supplemented with N2 (R&D Systems), B-27 (Life Technologies), neurotrophin 3 (R&D Systems; 10 ng ml^−1), cAMP (Sigma; 50 μM), IGF-1 (R&D Systems; 100 ng ml^−1), noggin (R&D Systems; 100 ngml^−1)) and allowed to attach for 2 h before addition of drug. NIH Clinical Collection I and II drugs were added to assay plates with 0.1 ml pin replicators (Molecular Devices, Genetix; X5051), resulting in a final primary screening concentration of 5 μM. Thyroid-hormone-positive controls and DMSO vehicle controls were included in each assay plate. Cells were incubated under standard conditions (37° C., 5% CO2) for 3 days and fixed with 4% paraformaldehyde (PFA) in phosphate buffered saline (PBS). Fixed plates were permeabilized with 0.1% Triton X-100 and blocked with 10% donkey serum (v/v) in PBS for 2 h. Cells were labelled with MBP antibodies (Abcam, ab7349; 1:100) for 1 h at room temperature (˜22° C.) followed by detection with Alexa Fluorconjugated secondary antibodies (1:500) for 45 min. Nuclei were visualized by DAPI staining (Sigma; 1 μgml^−). All plates for the primary screen were processed and analyzed simultaneously to eliminate variability.
For the 5 μM in vitro screen, stained plates were imaged on the Opera confocal imaging system (PerkinElmer) and a set of 24×10 fields were collected from each well, resulting in an average of 10,000 cells being scored per well. For the dose-response (6.7 μM, 5 μM, 3.3 μM, 1.7 μM, 666 nM, 500 nM, and 333 nM) in vitro assays, plates were imaged on the Operetta High Content Imaging and Analysis system (PerkinElmer) and a set of 14×20 fields captured from each well resulting in an average of 3,300 cells being scored per well. […] Each traced nucleus region was then expanded by 50% and cross-referenced with the mature myelin protein (MBP or PLP1) stain to identify oligodendrocyte nuclei, and from this the percentage of oligodendrocytes was calculated. Processes emanating from oligodendrocyte nuclei were identified using the CSIRO2 analysis module within a custom Acapella script. Maximum mean process length (denoted ‘process length’) and mean process intensity (denoted ‘process intensity’) were generated on a per well basis. For the 5 μM in vitro screen, values were calculated and normalized to 100 for thyroid hormone (positive control)-treated wells and to 0 for DMSO(vehicle)-treated wells, on a per plate basis.

[2] = tested on: hESC- and hiPSC-derived human OPCs; assay: Screening of human OPCs (MBP staining, HCA); assay type: cell-based; conditions: 21 days; miconazole 1 μM, clobetasol 5 μM; vs DMSO
From the text: Human OPCs were generated from skin fibroblast-derived human iPSC line (CWRU43, Tesar laboratory) and hESC lines H7 (NIH Human Embryonic StemCell RegistryWA07; NIH approval number NIHhESC-10-0061) and H9 (NIH Human Embryonic Stem Cell Registry WA09; NIH approval number NIHhESC-10-0062) as previously described. iPSC- and hESC-derived OPCs were characterized by Sox10 (R&D Systems, AF2864; 1:100) staining, and then seeded in 96-well plates at 40,000 cells per well for drug testing. […] Plates were fixed and stained with MBP (Abcam, ab7349; 1:100) then imaged on the Operetta system. We analysed results with slight modification to HCA Acapella scripts used for mouse oligodendrocytes.

[3] = miconazole 10 mg/kg, clobetasol 2 mg/kg, benztropine 10 mg/kg

SMILES | MBP staining in the lesions (LPC lesion mouse model) | number of newly generated CC1+ oligodendrocytes in the lesion core (LPC lesion mouse model) | myelin thickness relative to axon diameter (g ratio) (LPC lesion mouse model; 12 d.p.l., compared with intact myelin) | extent of remyelination (electron micrographs, toluidine blue) (LPC lesion mouse model) | proliferation and secretion of cytokines by sensitized lymph node cells ([1]; 10^−9-10^−5 M) | areas of myelin disruption in the white matter (luxol fast blue, MBP immunohistochemistry) (MOG35-55 EAE mouse model) | functional improvement (disease score) (MOG35-55 EAE mouse model; [3]) | MBP expression and extent of demyelination in the spinal cord (MOG35-55 EAE mouse model) | average clinical scores and cumulative clinical scores (MOG35-55 EAE mouse model) | overt toxicity to the animals (MOG35-55 EAE mouse model; miconazole 10 mg/kg, clobetasol 2 mg/kg, benztropine 10 mg/kg, daily i.p. 10 days) | immune cell infiltration into the lesion areas (IBA1 staining) (MOG35-55 EAE mouse model) | astrocyte formation from OPCs (OPCs) | number of MBP+ oligodendrocytes by duration of treatment (mouse OPCs) | number of MBP+ oligodendrocytes at 72 h by time of treatment start (mouse OPCs) | human OPC differentiation [2] | modulation of immune cell function ([1]; summary of immune cell survival and function assays)
C[C@H]1C[C@H]2[C@@H]3CCC4=CC(=O)C=C[C@]4(C)[C@@]3(F)[C@@H](O)C[C@]2(C)[C@@]1(O)C(=O)CCl [clobetasol] | extensive MBP staining | significant increase in the number of newly generated CC1^+ oligodendrocytes | thinner than intact myelin | striking increase in the extent of remyelination | altered naïve T-cell differentiation and both the proliferation and secretion of cytokines | decrease in areas of myelin disruption in the white matter | marked improvement in function | restoration of MBP expression and a reduction in the extent of demyelination in the spinal cord | significant reduction of disease and functional improvement | no drugs showed any overt evidence of toxicity | small reduction of immune cell infiltration into the lesion areas, especially in clobetasol-treated animals, but not an abrogation | neither drug showed a significant impact on astrocyte formation | progressive, time-dependent increase | dependent on drug treatment within the first 24 h of differentiation | enhanced human OPC differentiation | –
Clc1ccc(COC(Cn2ccnc2)c2ccc(Cl)cc2Cl)c(Cl)c1 (stereo not shown) [miconazole] | extensive MBP staining | significant increase in the number of newly generated CC1^+ oligodendrocytes | – | striking increase in the extent of remyelination | – | decrease in areas of myelin disruption in the white matter | marked improvement in function | restoration of MBP expression and a reduction in the extent of demyelination in the spinal cord | significant reduction of disease and functional improvement | – | small reduction of immune cell infiltration into the lesion areas | neither drug showed a significant impact on astrocyte formation | progressive, time-dependent increase | dependent on drug treatment within the first 24 h of differentiation | enhanced human OPC differentiation, with miconazole exhibiting the most reproducible and potent effects | did not modulate immune cell function
